The record followed here is patent US9737516B2, “Bicyclic heterocycles as bet protein inhibitors” (Incyte Corporation, priority 2013, dated 2017).

Structures can show the parent of a compound that is named as a salt.

The target of one experiment is BRD4-BD1 (Homo sapiens (Human), UniProt O60885). The experiment can be described thus: BRD4 AlphaScreen assay (BRD4-BD1). The class given is binding. Particulars: H4Ac4 peptide, 3.8 nM BRD4-BD1, read-out: BRD4 BD-1 enzyme IC50. How it is done: (§1) BRD4-BD1 and BRD4-BD2 assays were conducted in white 384-well polystyrene plate in a final volume of 20 μL for BD1 and 40 μL for BD2. Inhibitors were first serially diluted in DMSO and added to the plate wells before the addition of other reaction components. The final concentration of DMSO in the assay was 1.25% (BD1) and 0.83% (BD2). The assays were carried out at room temperature for 75 min. in the assay buffer (50 mM HEPES, pH 7.4, 100 mM NaCl, 0.05% CHAPS, 0.01% BSA), containing 50 nM Biotin-labeled tetra-acetylated histone H4 peptide (H4Ac4), 3.8 nM (BRD4-BD1, BPS Bioscience #31040) or 20 nM (BRD4-BD2, BPS Bioscience #31041). The reaction followed by the addition of 20 μL of assay buffer supplemented with Streptavidin donor beads (PerkinElmer 6760002) and GSH Acceptor beads (PerkinElmer-AL109C) at 4 µg/mL under reduced light. After plate sealing, the plate was incubated in the dark at room temperature for 75 min. before reading on a PHERAstar FS plate reader (BMG Labtech). IC50 determination was performed by fitting the curve of percent control activity versus the log of the inhibitor concentration using the GraphPad Prism 5.0 software. IC50 data for the Examples is presented in Table 1 as determined by Assay A1.
Background: Alpha assays give light when donor and acceptor beads are brought close together.

The subject of the next experiment is KMS.12.BM cells. The experiment can be described thus: KMS.12.BM cell viability assay (ATP quantitation, Cell Titer-GLO). The class given is cell-based. The settings on record: Homo sapiens, 72 h, 3 days, concentration required for 50% cell death, read-out: KMS cellular IC50. How it is done: KMS.12.BM cell line (human myeloma) was purchased from JCRB (Osaka, Japan) and maintained in RPMI with 10% FBS culture medium. To measure the cytotoxic activity of the compounds through ATP quantitation, the KMS.12.BM cells are plated in the RPMI culture medium at 5000 cells/well/per 100 μL into a 96-well polystyrene clear black tissue culture plate (Greiner-bio-one through VWR, NJ), in the presence or absence of a concentration range of test compounds. After 3 days, […] Cell Titer-GLO Luminescent (Promega, Madison, Wis.) cell culture agent is added to each well for 10 minutes at room temperature to stabilize the luminescent signal. This determines the number of viable cells in culture based on quantitation of the ATP present, which signals the presence of metabolically active cells. Luminescence is measured with the Top Count 384 (Packard Bioscience through Perkin Elmer, Boston, Mass.). Compound inhibition is determined relative to cells cultured with no drug and the IC50 is reported as the compound concentration required for 50% cell death. IC50 data for the Examples is presented in Table 2 as determined by Assay B1.
On the technique in general: In ATP-based viability assays light output follows the ATP content of the culture.

For a further experiment, the target named is BRD4-BD2 (Homo sapiens (Human), UniProt O60885). The experiment can be described thus: BRD4 AlphaScreen assay (BRD4-BD2). It counts as binding. Particulars: H4Ac4 peptide, 20 nM BRD4-BD2, read-out: BRD4 BD-2 enzyme IC50. How it is done: as §1
The next experiment has as its system C-myc in KMS.12.BM cells. Description: KMS.12.BM C-myc ELISA assay. The settings on record: Homo sapiens, 2 hours. It counts as cell-based. As for the experimental part:
KMS.12.BM cell line (human myeloma) was purchased from JCRB (Osaka, Japan) and maintained in RPMI with 10% FBS culture medium. To measure the C-myc inhibitory activity of the compounds, the KMS.12.BM cells are plated in the RPMI culture medium at 75000 cells/well/per 200 μL into a 96-well flat bottom polystyrene tissue culture plate (Corning through VWR, N.J.), in the presence or absence of a concentration range of test compounds. After 2 hours, cell are pelleted and lysed with Cell Extraction Buffer (BioSource, Carlsbad, Calif.) in the presence of protease inhibitors (Life Technologies, Grand Island, N.Y. and Sigma, St Louis, Mo.). Clarified lyses are tested in a C-myc commercial ELISA (Life Technologies, Grand Island, N.Y.). Compound inhibition is determined relative to cells cultured with no drug and the IC50 is reported as the compound concentration required for 50% C-myc inhibition. IC50 data for the Examples is presented in Table 3 as determined by Assay C1.
Background: In an ELISA, binding on a coated surface is turned into a signal by an enzyme label.

Regarding `CCn1cnc2cc(OCC3CCC3)c(-c3cn(C)c(=O)c4[nH]ccc34)cc21` [Example 12, 4-[5-(Cyclobutylmethoxy)-1-ethyl-1H-benzimidazol-6-yl]-6-methyl-1,6-dihydro-7H-pyrrolo[2,3-c]pyridin-7-one], the IC50 was no more than 100 nM on BRD4-BD1, no more than 1000 nM in the experiment with KMS.12.BM cells and no more than 100 nM at BRD4-BD2.

For the compound `Cc1nc2cc(Oc3ccc(F)cc3F)c(-c3cn(C)c(=O)c4[nH]ccc34)cc2[nH]1` [Example 6, 4-[5-(2,4-Difluorophenoxy)-2-methyl-1H-benzimidazol-6-yl]-6-methyl-1,6-dihydro-7H-pyrrolo[2,3-c]pyridin-7-one trifluoroacetate], the IC50 in the experiment with C-myc in KMS.12.BM cells was no more than 1000 nM; at BRD4-BD1, no more than 100 nM; in the experiment with KMS.12.BM cells it was no more than 1000 nM; at BRD4-BD2, no more than 100 nM.

Consider `Cn1cc(-c2cc3[nH]cnc3cc2Oc2ccc(F)cc2F)c2cc[nH]c2c1=O` [Example 5, 4-[5-(2,4-Difluorophenoxy)-1H-benzimidazol-6-yl]-6-methyl-1,6-dihydro-7H-pyrrolo[2,3-c]pyridin-7-one trifluoroacetate], for which the IC50 in the experiment with C-myc in KMS.12.BM cells was no more than 1000 nM; on BRD4-BD1, no more than 100 nM; in the experiment with KMS.12.BM cells, no more than 1000 nM; at BRD4-BD2, no more than 100 nM.

Turning to `Cn1cc(-c2cc3ncn(C)c3cc2Oc2ccc(F)cc2F)c2cc[nH]c2c1=O` [Example 3, 4-[6-(2,4-Difluorophenoxy)-1-methyl-1H-benzimidazol-5-yl]-6-methyl-1,6-dihydro-7H-pyrrolo[2,3-c]pyridin-7-one], the IC50 with C-myc in KMS.12.BM cells was no more than 1000 nM; at BRD4-BD1, no more than 100 nM; with KMS.12.BM cells it was no more than 1000 nM; at BRD4-BD2, no more than 100 nM.

For `Cn1cc(-c2cc3[nH]nnc3cc2Oc2ccc(F)cc2F)c2cc[nH]c2c1=O` [Example 8, 4-(5-(2,4-difluorophenoxy)-1H-benzo[d][1,2,3]triazol-6-yl)-6-methyl-1H-pyrrolo[2,3-c]pyridin-7(6H)-one], the IC50 is no more than 1000 nM in the experiment with C-myc in KMS.12.BM cells, no more than 100 nM on BRD4-BD1, no more than 1000 nM in the experiment with KMS.12.BM cells and no more than 100 nM at BRD4-BD2.

Regarding `Cn1cc(-c2cc3ncn(C)c3cc2OCC2CCC2)c2cc[nH]c2c1=O` [Example 15, 4-[6-(Cyclobutylmethoxy)-1-methyl-1H-benzimidazol-5-yl]-6-methyl-1,6-dihydro-7H-pyrrolo[2,3-c]pyridin-7-one], the IC50 is no more than 1000 nM with C-myc in KMS.12.BM cells, no more than 100 nM on BRD4-BD1, no more than 1000 nM in the experiment with KMS.12.BM cells and no more than 100 nM at BRD4-BD2.

In the case of `Cn1cc(-c2cc3c(cc2OCC2CCC2)ncn3C)c2cc[nH]c2c1=O` [Example 14, 4-[5-(Cyclobutylmethoxy)-1-methyl-1H-benzimidazol-6-yl]-6-methyl-1,6-dihydro-7H-pyrrolo[2,3-c]pyridin-7-one], the IC50 in the experiment on C-myc in KMS.12.BM cells is no more than 1000 nM; at BRD4-BD1, no more than 100 nM; in the experiment with KMS.12.BM cells, no more than 1000 nM; on BRD4-BD2 it was no more than 100 nM.

Turning to `Cn1cc(-c2cc3c(cc2Oc2ccc(F)cc2F)n(C)c(=O)n3C)c2cc[nH]c2c1=O` [Example 7, 5-(2,4-Difluorophenoxy)-1,3-dimethyl-6-(6-methyl-7-oxo-6,7-dihydro-1H-pyrrolo[2,3-c]pyridin-4-yl)-1,3-dihydro-2H-benzimidazol-2-one], the IC50 is 100 to 1000 nM at BRD4-BD1, no more than 1000 nM in the experiment with KMS.12.BM cells and no more than 100 nM at BRD4-BD2.

Take `Cn1cc(-c2cc3[nH]c(=O)[nH]c3cc2Oc2ccc(F)cc2F)c2cc[nH]c2c1=O` [Example 1, 5-(2,4-Difluorophenoxy)-6-(6-methyl-7-oxo-6,7-dihydro-1H-pyrrolo[2,3-c]pyridin-4-yl)-1,3-dihydro-2H-benzimidazol-2-one]: the IC50 with C-myc in KMS.12.BM cells is no more than 1000 nM; on BRD4-BD1, no more than 100 nM; in the experiment on KMS.12.BM cells it was no more than 1000 nM; on BRD4-BD2, no more than 100 nM.

Consider `CCn1cnc2cc(-c3cn(C)c(=O)c4[nH]ccc34)c(OCC3CCC3)cc21` [Example 13, 4-[6-(Cyclobutylmethoxy)-1-ethyl-1H-benzimidazol-5-yl]-6-methyl-1,6-dihydro-7H-pyrrolo[2,3-c]pyridin-7-one], for which the IC50 in the experiment with C-myc in KMS.12.BM cells was no more than 1000 nM; on BRD4-BD1 it was no more than 100 nM; in the experiment with KMS.12.BM cells, no more than 1000 nM; on BRD4-BD2, no more than 100 nM.

Consider `Cn1cc(-c2cc3[nH]c(CCC(=O)O)nc3cc2OCC2CCC2)c2cc[nH]c2c1=O` [Example 22, Ammonium 3-[5-(cyclobutylmethoxy)-6-(6-methyl-7-oxo-6,7-dihydro-1H-pyrrolo[2,3-c]pyridin-4-yl)-1H-benzimidazol-2-yl]propanoate], for which the IC50 at BRD4-BD1 was no more than 100 nM; in the experiment with KMS.12.BM cells, 1000 to 10000 nM; at BRD4-BD2, no more than 100 nM.

On to `Cn1cc(-c2cc3c(cc2OCC2CCC2)ncn3Cc2ccccc2)c2cc[nH]c2c1=O` [Example 16, 4-[5-(Cyclobutylmethoxy)-1-benzyl-1H-benzimidazol-6-yl]-6-methyl-1,6-dihydro-7H-pyrrolo[2,3-c]pyridin-7-one], for which the IC50 on BRD4-BD1 is 100 to 1000 nM; on BRD4-BD2, no more than 100 nM.

`Cn1cc(-c2cc3[nH]c(C4CCCC4)nc3cc2OCC2CCC2)c2cc[nH]c2c1=O` [Example 21, 4-[5-(Cyclobutylmethoxy)-2-cyclopentyl-1H-benzimidazol-6-yl]-6-methyl-1,6-dihydro-7H-pyrrolo[2,3-c]pyridin-7-one bis(trifluoroacetate)]: the IC50 at BRD4-BD1 was no more than 100 nM; in the experiment with KMS.12.BM cells it was no more than 1000 nM; on BRD4-BD2 it was no more than 100 nM.

Take `Cn1cc(-c2cc3[nH]cnc3cc2Oc2ccc(F)cc2F)c2cn[nH]c2c1=O` [Example 9, 4-[6-(2,4-Difluorophenoxy)-1H-benzimidazol-5-yl]-6-methyl-1,6-dihydro-7H-pyrazolo[3,4-c]pyridin-7-one trifluoroacetate]: the IC50 in the experiment on C-myc in KMS.12.BM cells was no more than 1000 nM; at BRD4-BD1 it was no more than 100 nM; in the experiment with KMS.12.BM cells, no more than 1000 nM; on BRD4-BD2, no more than 100 nM.

For `Cn1cc(-c2cc3[nH]c(N4CCCCC4)nc3cc2OCC2CCC2)c2cc[nH]c2c1=O` [Example 20, 4-[5-(Cyclobutylmethoxy)-2-piperidin-1-yl-1H-benzimidazol-6-yl]-6-methyl-1,6-dihydro-7H-pyrrolo[2,3-c]pyridin-7-one], the IC50 with C-myc in KMS.12.BM cells is no more than 1000 nM; on BRD4-BD1, no more than 100 nM; with KMS.12.BM cells it was no more than 1000 nM; at BRD4-BD2, no more than 100 nM.

For `CC(C)n1cnc2cc(-c3cn(C)c(=O)c4[nH]ccc34)c(OCC3CCC3)cc21` [Example 19, 4-[6-(cyclobutylmethoxy)-1-isopropyl-1H-benzimidazol-5-yl]-6-methyl-1,6-dihydro-7H-pyrrolo[2,3-c]pyridin-7-one], the IC50 in the experiment on C-myc in KMS.12.BM cells was no more than 1000 nM; at BRD4-BD1 it was no more than 100 nM; with KMS.12.BM cells it was no more than 1000 nM; on BRD4-BD2, no more than 100 nM.

As for `Cn1cc(-c2cc3ncn(Cc4ccccc4)c3cc2OCC2CCC2)c2cc[nH]c2c1=O` [Example 17, 4-[6-(Cyclobutylmethoxy)-1-benzyl-1H-benzimidazol-5-yl]-6-methyl-1,6-dihydro-7H-pyrrolo[2,3-c]pyridin-7-one], the IC50 is no more than 1000 nM with C-myc in KMS.12.BM cells, no more than 100 nM on BRD4-BD1, no more than 1000 nM with KMS.12.BM cells and no more than 100 nM on BRD4-BD2.

As to `Cc1nc2cc(-c3cn(C)c(=O)c4[nH]ccc34)c(Oc3ccc(F)cc3F)cc2n1C` [Example 4, 4-[6-(2,4-Difluorophenoxy)-1,2-dimethyl-1H-benzimidazol-5-yl]-6-methyl-1,6-dihydro-7H-pyrrolo[2,3-c]pyridin-7-one], the IC50 with C-myc in KMS.12.BM cells is no more than 1000 nM; on BRD4-BD1, no more than 100 nM; with KMS.12.BM cells, no more than 1000 nM; on BRD4-BD2, no more than 100 nM.

Broadly, the IC50 is the point on the concentration scale where inhibition reaches its midpoint.
